Here are results for 63 compounds from US20130131075A1, “NEW COMPOUNDS” (Boehringer Ingelheim International GmbH, priority 2009, published 2013).

Each structure is given as a SMILES string.

This test has as its target T1, cynomolgus BK1-receptor (Macaca fascicularis, UniProt Q3BCU0).
T1 construct: expressed in transfected cells; host or cells: CHO cells (homogenate)
T1 sequence (Q3BCU0 1-352): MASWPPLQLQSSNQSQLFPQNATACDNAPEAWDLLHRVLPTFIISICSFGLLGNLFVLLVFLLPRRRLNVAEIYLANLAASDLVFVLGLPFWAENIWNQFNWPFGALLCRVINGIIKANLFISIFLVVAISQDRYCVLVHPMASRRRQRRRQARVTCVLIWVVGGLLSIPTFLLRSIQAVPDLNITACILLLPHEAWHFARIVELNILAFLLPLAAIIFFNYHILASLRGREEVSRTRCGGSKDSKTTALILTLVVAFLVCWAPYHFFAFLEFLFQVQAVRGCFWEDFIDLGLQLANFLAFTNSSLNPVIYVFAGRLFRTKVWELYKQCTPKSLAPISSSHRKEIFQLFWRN
In words: cynoBK1-receptor binding assay. To be noted: CHO cells expressing cynomolgus BK1-receptor, radioligand kallidine (DesArg10,Leu9). Put shortly: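 Ki derived by non-linear fitting of concentration-binding curves. Test compound competed against 0.5 to 5.0 nM tritiated kallidine (DesArg10,Leu9) on cynomolgus BK1-CHO cell homogenate (50 to 250 μg protein/assay) for 60-180 minutes at ambient temperature, then filtered. 1.0 μM kallidine (DesArg10) set non-specific binding.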

As a reminder, the Ki is the equilibrium dissociation constant of an inhibitor or competing ligand from its target. `Nc1cncc(C(=O)N[C@@]2(C(=O)NCc3ncc(Nc4ccc(F)cc4C(F)(F)F)cc3Cl)CCOC2)c1` [(219)] yielded a Ki of 8.9 nM.
With `O=C(N[C@@]1(C(=O)NCc2ncc(Nc3ccc(F)cc3C(F)(F)F)cc2Cl)CCOC1)c1cnc2[nH]cnc2c1` [(220)] the figure was 15 nM.
Compound `Cn1ncc(C(=O)NC2(C(=O)NCc3ccc(Nc4ccc(F)cc4C(F)(F)F)cn3)CC2)cc1=O` [(221)] had a Ki of 13 nM.
As for `Nc1cncc(C(=O)N[C@@]2(C(=O)NCc3ccc(Nc4ccc(Br)cc4C(F)(F)F)cn3)CCOC2)c1` [(222)], the affinity corresponds to a Ki of 68 nM.
For `O=C(N[C@@]1(C(=O)NCc2ccc(Nc3ccc(Br)cc3C(F)(F)F)cn2)CCOC1)c1cncnc1` [(223)] the value was 75 nM; for `CNc1ncc(C(=O)N[C@@]2(C(=O)NCc3ncc(Nc4ccc(F)cc4C(F)(F)F)cc3Cl)CCOC2)cn1` [(224)], 6.3 nM; for `O=C(CC(F)(F)F)N[C@@]1(C(=O)NCc2ncc(Nc3ccc(F)cc3C(F)(F)F)cc2Cl)CCOC1` [(225)], 68 nM.
The compound `Nc1cncc(C(=O)N[C@@]2(C(=O)NCc3ccc(Nc4ccc(Cl)cc4C(F)(F)F)cn3)CCOC2)c1` [(226)] returned a Ki of 157 nM.
With `CNc1cc(C(=O)NC2(C(=O)NCc3ccc(Nc4ccc(F)cc4C(F)(F)F)cn3)CC2)cnn1` [(227)] the figure was 97 nM.
With `O=C(N[C@@]1(C(=O)NCc2ccc(Nc3ccc(Cl)cc3C(F)(F)F)cn2)CCOC1)c1cncnc1` [(228)] the figure was 78 nM.
With `Nc1cncc(C(=O)N[C@@]2(C(=O)NCc3ncc(Nc4ccccc4C(F)(F)F)cc3Cl)CCOC2)c1` [(229)] the figure was 27 nM; with `COc1ncc(C(=O)N[C@@]2(C(=O)NCc3ncc(Nc4ccc(F)cc4C(F)(F)F)cc3Cl)CCOC2)cn1` [(230)], 6.1 nM; with `Nc1cncc(C(=O)N[C@@]2(C(=O)NCc3ccc(Nc4ccc(F)cc4C(F)(F)F)cc3F)CCOC2)c1` [(231)], 4.2 nM.
Turning to `Cc1ncc(C(=O)NC2(C(=O)NCc3ccc(Nc4ccc(F)cc4C(F)(F)F)cn3)CC2)cn1` [(232)], the Ki came out at 5.6 nM.
On to `COc1ncc(C(=O)NC2(C(=O)NCc3ccc(Nc4ccc(F)cc4C(F)(F)F)cn3)CC2)cn1` [(233)], for which the Ki stood at 10 nM.
With `O=C(NC1(C(=O)NCc2ccc(Nc3ccc(Br)cc3C(F)(F)F)cn2)CC1)c1ccc(O)nc1` [(234)] the figure was 105 nM; with `COc1ccc(C(=O)NC2(C(=O)NCc3ccc(Nc4ccc(Br)cc4C(F)(F)F)cn3)CC2)cn1` [(235)], 489 nM; with `Nc1cncc(C(=O)N[C@@]2(C(=O)NCc3ccc(Nc4ccccc4C(F)(F)F)cc3F)CCOC2)c1` [(236)], 8.2 nM.
`Nc1cncc(C(=O)N[C@@]2(C(=O)NCc3ncc(Nc4c(F)cccc4C(F)(F)F)cc3Cl)CCOC2)c1` [(237)] showed an inhibition constant Ki of 151 nM.
For `COc1ncc(C(=O)N[C@@]2(C(=O)NCc3ncc(Nc4ccc(F)cc4C(F)(F)F)cc3F)CCOC2)cn1` [(238)] the value was 6.6 nM; for `O=C(NC1(C(=O)NCc2ccc(Nc3ccc(Cl)cc3C(F)(F)F)cn2)CC1)c1ccc(O)nc1` [(239)], 182 nM; for `COc1ccc(C(=O)NC2(C(=O)NCc3ccc(Nc4ccc(Cl)cc4C(F)(F)F)cn3)CC2)cn1` [(240)], 506 nM.
With `CNc1ncc(C(=O)N[C@@]2(C(=O)NCc3ncc(Nc4c(F)cccc4C(F)(F)F)cc3Cl)CCOC2)cn1` [(241)] the figure was 68 nM; with `O=C(N[C@@]1(C(=O)NCc2ncc(Nc3ccc(Cl)cc3C(F)(F)F)cc2F)CCOC1)c1cncnc1` [(242)], 15 nM; with `O=C(NC1(C(=O)NCc2ccc(Nc3ccc(F)cc3C(F)(F)F)cn2)CC1)c1cncc(O)c1` [(243)], 28 nM.
Turning to `Nc1ccc(C(=O)NC2(C(=O)NCc3ccc(Nc4ccc(F)cc4C(F)(F)F)cn3)CC2)cn1` [(244)], the Ki stood at 8.4 nM.
In turn, `CC(C)c1ncc(C(=O)NC2(C(=O)NCc3ccc(Nc4ccc(F)cc4C(F)(F)F)cn3)CC2)cn1` [(245)] displayed a Ki of 18 nM.
With `O=C(NC1(C(=O)NCc2ccc(Nc3ccc(F)cc3C(F)(F)F)cn2)CC1)c1cnc(C(F)(F)F)nc1` [(246)] the figure was 21 nM; with `CCNc1ncc(C(=O)NC2(C(=O)NCc3ccc(Nc4ccc(F)cc4C(F)(F)F)cn3)CC2)cn1` [(247)], 3.9 nM.
In the case of `O=C(NC1(C(=O)NCc2ccc(Nc3ccc(F)cc3C(F)(F)F)cn2)CC1)c1cnc(N2CCCCC2)nc1` [(248)], the inhibition constant (Ki) is 276 nM.
With `CC(=O)Nc1cncc(C(=O)NC2(C(=O)NCc3ccc(Nc4ccc(F)cc4C(F)(F)F)cn3)CC2)c1` [(249)] the figure was 518 nM; with `O=C(NC1(C(=O)NCc2ccc(Nc3ccc(F)cc3C(F)(F)F)cn2)CC1)c1cnc(N2CCCC2)nc1` [(250)], 175 nM.
On to `CC(=O)Nc1ccc(C(=O)NC2(C(=O)NCc3ccc(Nc4ccc(F)cc4C(F)(F)F)cn3)CC2)cn1` [(251)], for which the Ki is 14 nM.
For the compound `CN(C)c1cc(C(=O)NC2(C(=O)NCc3ccc(Nc4ccc(F)cc4C(F)(F)F)cn3)CC2)cnn1` [(252)], the Ki came to 120 nM.
For `O=C(NC1(C(=O)NCc2ccc(Nc3ccc(F)cc3C(F)(F)F)cn2)CC1)c1ccc(Cl)nc1` [(253)] the value was 49 nM; for `O=C(NC1(C(=O)NCc2ccc(Nc3ccc(F)cc3C(F)(F)F)cn2)CC1)c1ccc(C(F)(F)F)nc1` [(254)], 257 nM; for `O=C(NC1(C(=O)NCc2ccc(Nc3ccc(F)cc3C(F)(F)F)cn2)CC1)c1cnc2cc[nH]c2c1` [(255)], 15 nM.
With `N#Cc1ccc(C(=O)NC2(C(=O)NCc3ccc(Nc4ccc(F)cc4C(F)(F)F)cn3)CC2)cn1` [(256)] the figure was 72 nM; with `CC(=O)Nc1ncc(C(=O)NC2(C(=O)NCc3ccc(Nc4ccc(F)cc4C(F)(F)F)cn3)CC2)s1` [(257)], 17 nM.
In the case of `COc1ncc(C(=O)N[C@@]2(C(=O)NCc3ncc(Nc4c(F)cccc4C(F)(F)F)cc3Cl)CCOC2)cn1` [(258)], the affinity corresponds to a Ki of 37 nM.
With `CNc1cncc(C(=O)N[C@@]2(C(=O)NCc3ncc(Nc4c(F)cccc4C(F)(F)F)cc3Cl)CCOC2)c1` [(259)] the figure was 394 nM.
For `CNc1cncc(C(=O)N[C@@]2(C(=O)NCc3ncc(Nc4ccc(F)cc4C(F)(F)F)cc3F)CCOC2)c1` [(260)] the value was 43 nM; for `O=C(CC(F)(F)F)N[C@@]1(C(=O)NCc2ncc(Nc3c(F)cccc3C(F)(F)F)cc2Cl)CCOC1` [(261)], 456 nM; for `Nc1cc(C(=O)NC2(C(=O)NCc3ccc(Nc4ccc(F)cc4C(F)(F)F)cn3)CC2)cnn1` [(262)], 37 nM.
The compound `CN(C)c1ccc(C(=O)NC2(C(=O)NCc3ccc(Nc4ccc(Cl)cc4C(F)(F)F)cn3)CC2)cn1` [(263)] had a Ki of 485 nM.
`Cn1cnc2cc(C(=O)NC3(C(=O)NCc4ccc(Nc5ccc(Cl)cc5C(F)(F)F)cn4)CC3)ccc21` [(264)] had a Ki of 60 nM.
With `Nc1nc2cc(C(=O)NC3(C(=O)NCc4ccc(Nc5ccc(Cl)cc5C(F)(F)F)cn4)CC3)ccc2[nH]1` [(265)] the figure was 75 nM.
For `O=C(NC1(C(=O)NCc2ccc(Nc3ccc(Cl)cc3C(F)(F)F)cn2)CC1)c1ccc2[nH]cnc2c1` [(266)] the value was 78 nM.
Regarding `Cc1ncc(C(=O)N[C@@]2(C(=O)NCc3ncc(Nc4ccc(F)cc4C(F)(F)F)cc3F)CCOC2)cn1` [(267)], the Ki worked out at 5.5 nM.
As for `CN(C)c1ccc(C(=O)NC2(C(=O)NCc3ccc(Nc4ccc(Br)cc4C(F)(F)F)cn3)CC2)cn1` [(268)], the inhibition constant Ki was determined as 281 nM.
`CNc1cncc(C(=O)N[C@@]2(C(=O)NCc3ncc(Nc4ccc(F)cc4C(F)(F)F)cc3Cl)CCOC2)c1` [(269)] gave a Ki of 47 nM.
In turn, `CNc1cncc(C(=O)NC2(C(=O)NCc3ccc(Nc4ccc(F)cc4C(F)(F)F)cn3)CC2)c1` [(270)] registered a Ki of 51 nM.
Compound `Nc1cncc(C(=O)N[C@@]2(C(=O)NCc3ncc(Nc4ccc(Cl)cc4C(F)(F)F)cc3F)CCOC2)c1` [(271)] registered a Ki of 17 nM.
With `CNc1cncc(C(=O)NC2(C(=O)NCc3ncc(Nc4c(F)cccc4C(F)(F)F)cc3F)CC2)c1` [(272)] the figure was 35 nM; with `Nc1cncc(C(=O)NC2(C(=O)NCc3ccc(Nc4ccccc4C(F)(F)F)cc3)COC2)c1` [(273)], 141 nM.
With `Cc1ncc(C(=O)N[C@@]2(C(=O)NCc3ccc(Nc4ccc(F)cc4C(F)(F)F)cc3F)CCOC2)cn1` [(274)], the Ki was 4 nM.
For `CC(=O)Nc1cncc(C(=O)NC2(C(=O)NCc3ccc(Nc4ccc(Cl)cc4C(F)(F)F)cn3)CC2)c1` [(275)] the value was 405 nM; for `CNc1ncc(C(=O)N[C@@]2(C(=O)NCc3ncc(Nc4ccc(Cl)cc4C(F)(F)F)cc3F)CCOC2)cn1` [(276)], 17 nM; for `Cc1ncc(C(=O)N[C@@]2(C(=O)NCc3ncc(Nc4ccc(Cl)cc4C(F)(F)F)cc3F)CCOC2)cn1` [(277)], 10 nM.
For `O=C(N[C@@]1(C(=O)NCc2ncc(Nc3ccc(Cl)cc3C(F)(F)F)cc2Cl)CCOC1)c1cncnc1` [(278)] the value was 16 nM.
Compound `Cc1ncc(C(=O)N[C@@]2(C(=O)NCc3ccc(Nc4ccccc4C(F)(F)F)cc3F)CCOC2)cn1` [(279)] showed a Ki of 5.5 nM.
As for `CNc1cncc(C(=O)NC2(C(=O)NCc3ccc(Nc4ccc(Cl)cc4C(F)(F)F)cn3)CC2)c1` [(280)], the Ki turned out to be 25 nM.
`CNc1ncc(C(=O)N[C@@]2(C(=O)NCc3ncc(Nc4ccc(Cl)cc4C(F)(F)F)cc3Cl)CCOC2)cn1` [(281)]: the Ki worked out at 21 nM.
